Experimental data from ChEMBL document CHEMBL5465560, “Selectivity Literature for EUbOPEN Chemogenomic Library” (2024).
Blank lines part the entries; values can stand above or below the compound they belong to.

Tests used:
[1] = molecular target: ALK tyrosine kinase receptor (Homo sapiens, UniProt Q9UM73); test: Selectivity interaction (Kinase panel (Z-LYTE Assay)) EUB0001632a ALK; details: at 10 µM
[2] = molecular target: Progesterone receptor (Homo sapiens, UniProt P06401); test: Selectivity interaction (Progesteron receptor agonist/antagonist FRET assay, human recombinant) EUB0000877a PGR
[3] = molecular target: Ribosomal protein S6 kinase alpha-4 (Homo sapiens) (UniProt O75676); test: Selectivity interaction (KinomeScan (DiscoverX)) EUB0000607a RPS6KA4; details: at 10 µM
[4] = molecular target: T1, Mitogen-activated protein kinase kinase kinase 3 (Homo sapiens) (UniProt Q99759); test: Selectivity interaction (ActivX KiNativ screen (kinase selectivity in THP-1 cell lysates)) EUB0000639a MAP3K3; format: subcellular; details: lysate
T1 sequence (whole entry): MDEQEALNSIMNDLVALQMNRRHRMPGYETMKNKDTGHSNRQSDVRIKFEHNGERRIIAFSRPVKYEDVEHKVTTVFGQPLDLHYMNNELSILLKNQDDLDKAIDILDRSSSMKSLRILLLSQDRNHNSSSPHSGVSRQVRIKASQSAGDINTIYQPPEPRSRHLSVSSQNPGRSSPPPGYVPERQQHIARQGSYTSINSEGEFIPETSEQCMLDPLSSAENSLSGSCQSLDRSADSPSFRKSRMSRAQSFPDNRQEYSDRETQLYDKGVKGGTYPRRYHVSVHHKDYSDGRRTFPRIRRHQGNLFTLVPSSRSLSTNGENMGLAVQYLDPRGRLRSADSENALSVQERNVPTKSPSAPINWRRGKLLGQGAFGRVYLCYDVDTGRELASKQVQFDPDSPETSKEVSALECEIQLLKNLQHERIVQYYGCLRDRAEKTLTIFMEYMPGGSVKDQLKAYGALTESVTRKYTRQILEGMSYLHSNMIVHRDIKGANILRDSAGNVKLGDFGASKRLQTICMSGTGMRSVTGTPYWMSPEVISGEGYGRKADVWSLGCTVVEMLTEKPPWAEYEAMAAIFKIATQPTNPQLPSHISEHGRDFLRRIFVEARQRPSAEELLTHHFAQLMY

[5] = molecular target: Serine/threonine-protein kinase 24 (Homo sapiens) (UniProt Q9Y6E0); test: Selectivity interaction (ActivX KiNativ screen (kinase selectivity in THP-1 cell lysates)) EUB0000639a STK24; format: subcellular; details: lysate, at 5 µM
[6] = molecular target: T2, Serine/threonine-protein kinase 4 (Homo sapiens) (UniProt Q13043); test: Selectivity interaction (Kinase panel (DSF assay)) EUB0001559a STK4
T2 sequence (whole entry): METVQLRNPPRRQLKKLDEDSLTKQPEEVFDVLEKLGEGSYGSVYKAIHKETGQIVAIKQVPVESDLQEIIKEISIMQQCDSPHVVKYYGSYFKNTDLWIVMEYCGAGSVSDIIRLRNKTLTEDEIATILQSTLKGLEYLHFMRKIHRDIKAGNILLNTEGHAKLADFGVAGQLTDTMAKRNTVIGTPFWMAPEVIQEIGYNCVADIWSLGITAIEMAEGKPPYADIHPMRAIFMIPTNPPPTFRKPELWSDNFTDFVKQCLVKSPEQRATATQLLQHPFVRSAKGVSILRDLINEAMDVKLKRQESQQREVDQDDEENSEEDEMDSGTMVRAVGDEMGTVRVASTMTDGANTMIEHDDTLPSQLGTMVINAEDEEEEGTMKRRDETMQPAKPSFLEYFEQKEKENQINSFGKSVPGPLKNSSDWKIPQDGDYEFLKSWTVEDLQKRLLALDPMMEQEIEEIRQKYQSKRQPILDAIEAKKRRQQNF

[7] = molecular target: Protein-tyrosine kinase 6 (Homo sapiens, UniProt Q13882); test: Selectivity interaction (KinaseProfiler screening (Millipore, enzymatic assay)) EUB0000601a PTK6
[8] = molecular target: Dual specificity testis-specific protein kinase 1 (Homo sapiens) (UniProt Q15569); details: at 10 µM
[9] = molecular target: Serine/threonine-protein kinase VRK2 (Homo sapiens) (UniProt Q86Y07); test: Selectivity interaction (KinomeScan (DiscoverX)) EUB0000595a VRK2; details: at 10 µM
[10] = molecular target: Mitogen-activated protein kinase kinase kinase 14 (Homo sapiens) (UniProt Q99558); test: Selectivity interaction (Ambit KINOMEscan and KiNATiv profiling in Jurkat cells) EUB0000090b MAP3K14; format: cell-based; details: at 1 µM
[11] = molecular target: 5-hydroxytryptamine receptor 2A (Homo sapiens, UniProt P28223); test: Selectivity interaction (Panel of kinases, GPCRs, ion channels and transporters (enzymatic assay)) EUB0000223bCl HTR2A
[12] = molecular target: Bromodomain-containing protein 2 (Homo sapiens) (UniProt P25440); test: Selectivity interaction (Bromodomain panel (DSF asssay)) EUB0000270b BRD2
[13] = molecular target: Serine/threonine-protein kinase PLK3 (Homo sapiens, UniProt Q9H4B4); test: Selectivity interaction (KinomeScan (DiscoverX)) EUB0000229b PLK3; details: at 10 µM
[14] = molecular target: TRAF2 and NCK-interacting protein kinase (Homo sapiens) (UniProt Q9UKE5); test: Selectivity interaction (KinomeScan (DiscoverX)) EUB0000092b TNIK; details: at 10 µM
[15] = molecular target: Mitogen-activated protein kinase 6 (Homo sapiens) (UniProt Q16659); test: Selectivity interaction (KinomeScan (DiscoverX)) EUB0000618a MAPK6; details: at 10 µM
[16] = molecular target: Calcium/calmodulin-dependent protein kinase type II subunit delta (Homo sapiens) (UniProt Q13557); test: Selectivity interaction (ActivX KiNativ screen (ex vivo kinase selectivity in human PBMCs)) EUB0001619a CAMK2D; format: cell-based; details: PBMC, at 1 µM

Chain of Ribosomal protein S6 kinase alpha-4 (Homo sapiens) (O75676 whole entry, looked up): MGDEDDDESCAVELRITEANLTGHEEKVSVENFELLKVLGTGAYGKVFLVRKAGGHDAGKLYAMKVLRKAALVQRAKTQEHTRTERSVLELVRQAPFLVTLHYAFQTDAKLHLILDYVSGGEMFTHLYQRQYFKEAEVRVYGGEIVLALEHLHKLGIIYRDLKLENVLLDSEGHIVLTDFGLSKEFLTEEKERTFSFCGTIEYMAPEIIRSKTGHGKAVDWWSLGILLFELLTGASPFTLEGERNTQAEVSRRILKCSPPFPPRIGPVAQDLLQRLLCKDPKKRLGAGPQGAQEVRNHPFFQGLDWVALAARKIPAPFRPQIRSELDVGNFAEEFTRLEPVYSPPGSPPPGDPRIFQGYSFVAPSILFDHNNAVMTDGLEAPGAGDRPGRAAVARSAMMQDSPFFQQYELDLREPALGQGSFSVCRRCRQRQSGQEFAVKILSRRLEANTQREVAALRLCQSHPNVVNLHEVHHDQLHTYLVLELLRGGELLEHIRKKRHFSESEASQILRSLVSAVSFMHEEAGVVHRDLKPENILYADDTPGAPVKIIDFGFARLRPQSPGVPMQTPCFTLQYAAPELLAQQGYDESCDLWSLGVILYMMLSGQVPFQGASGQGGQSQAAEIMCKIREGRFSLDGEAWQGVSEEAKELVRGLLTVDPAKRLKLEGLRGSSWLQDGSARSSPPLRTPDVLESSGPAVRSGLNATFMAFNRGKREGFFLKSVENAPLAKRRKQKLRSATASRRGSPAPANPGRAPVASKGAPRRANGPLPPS
Chain of Mitogen-activated protein kinase 6 (Homo sapiens) (Q16659 whole entry): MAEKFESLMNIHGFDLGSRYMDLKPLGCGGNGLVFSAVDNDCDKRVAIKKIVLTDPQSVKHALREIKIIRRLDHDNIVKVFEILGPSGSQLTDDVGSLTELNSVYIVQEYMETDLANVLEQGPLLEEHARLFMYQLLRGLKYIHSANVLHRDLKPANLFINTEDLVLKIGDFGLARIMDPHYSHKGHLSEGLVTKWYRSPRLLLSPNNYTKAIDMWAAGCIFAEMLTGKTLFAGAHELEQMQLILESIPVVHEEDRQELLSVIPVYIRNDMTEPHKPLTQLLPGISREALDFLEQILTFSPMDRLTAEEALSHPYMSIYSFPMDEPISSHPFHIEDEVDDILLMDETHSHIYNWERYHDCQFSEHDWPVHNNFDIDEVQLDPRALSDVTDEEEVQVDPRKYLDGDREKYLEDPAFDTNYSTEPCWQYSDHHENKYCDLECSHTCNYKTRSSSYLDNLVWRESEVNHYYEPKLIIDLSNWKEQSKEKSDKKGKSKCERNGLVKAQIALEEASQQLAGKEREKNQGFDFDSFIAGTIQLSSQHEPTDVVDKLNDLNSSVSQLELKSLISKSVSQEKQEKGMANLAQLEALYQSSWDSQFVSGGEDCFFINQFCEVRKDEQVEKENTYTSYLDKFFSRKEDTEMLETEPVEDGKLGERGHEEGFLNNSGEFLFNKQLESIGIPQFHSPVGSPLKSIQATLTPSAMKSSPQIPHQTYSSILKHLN
Chain of Serine/threonine-protein kinase 24 (Homo sapiens) (Q9Y6E0 whole entry, looked up): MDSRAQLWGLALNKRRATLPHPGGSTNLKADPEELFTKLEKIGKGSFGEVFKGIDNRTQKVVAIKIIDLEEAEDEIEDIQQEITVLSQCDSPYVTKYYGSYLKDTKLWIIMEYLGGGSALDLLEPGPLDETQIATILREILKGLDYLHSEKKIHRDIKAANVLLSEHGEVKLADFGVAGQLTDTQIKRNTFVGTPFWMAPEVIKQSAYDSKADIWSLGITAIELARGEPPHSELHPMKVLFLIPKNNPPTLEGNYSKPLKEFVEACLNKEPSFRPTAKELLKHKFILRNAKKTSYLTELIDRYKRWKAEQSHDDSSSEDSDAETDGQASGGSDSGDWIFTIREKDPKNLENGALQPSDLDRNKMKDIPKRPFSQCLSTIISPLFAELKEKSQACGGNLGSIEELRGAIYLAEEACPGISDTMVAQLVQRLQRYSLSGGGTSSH
Chain of ALK tyrosine kinase receptor (Q9UM73 19-1620 limits assumed): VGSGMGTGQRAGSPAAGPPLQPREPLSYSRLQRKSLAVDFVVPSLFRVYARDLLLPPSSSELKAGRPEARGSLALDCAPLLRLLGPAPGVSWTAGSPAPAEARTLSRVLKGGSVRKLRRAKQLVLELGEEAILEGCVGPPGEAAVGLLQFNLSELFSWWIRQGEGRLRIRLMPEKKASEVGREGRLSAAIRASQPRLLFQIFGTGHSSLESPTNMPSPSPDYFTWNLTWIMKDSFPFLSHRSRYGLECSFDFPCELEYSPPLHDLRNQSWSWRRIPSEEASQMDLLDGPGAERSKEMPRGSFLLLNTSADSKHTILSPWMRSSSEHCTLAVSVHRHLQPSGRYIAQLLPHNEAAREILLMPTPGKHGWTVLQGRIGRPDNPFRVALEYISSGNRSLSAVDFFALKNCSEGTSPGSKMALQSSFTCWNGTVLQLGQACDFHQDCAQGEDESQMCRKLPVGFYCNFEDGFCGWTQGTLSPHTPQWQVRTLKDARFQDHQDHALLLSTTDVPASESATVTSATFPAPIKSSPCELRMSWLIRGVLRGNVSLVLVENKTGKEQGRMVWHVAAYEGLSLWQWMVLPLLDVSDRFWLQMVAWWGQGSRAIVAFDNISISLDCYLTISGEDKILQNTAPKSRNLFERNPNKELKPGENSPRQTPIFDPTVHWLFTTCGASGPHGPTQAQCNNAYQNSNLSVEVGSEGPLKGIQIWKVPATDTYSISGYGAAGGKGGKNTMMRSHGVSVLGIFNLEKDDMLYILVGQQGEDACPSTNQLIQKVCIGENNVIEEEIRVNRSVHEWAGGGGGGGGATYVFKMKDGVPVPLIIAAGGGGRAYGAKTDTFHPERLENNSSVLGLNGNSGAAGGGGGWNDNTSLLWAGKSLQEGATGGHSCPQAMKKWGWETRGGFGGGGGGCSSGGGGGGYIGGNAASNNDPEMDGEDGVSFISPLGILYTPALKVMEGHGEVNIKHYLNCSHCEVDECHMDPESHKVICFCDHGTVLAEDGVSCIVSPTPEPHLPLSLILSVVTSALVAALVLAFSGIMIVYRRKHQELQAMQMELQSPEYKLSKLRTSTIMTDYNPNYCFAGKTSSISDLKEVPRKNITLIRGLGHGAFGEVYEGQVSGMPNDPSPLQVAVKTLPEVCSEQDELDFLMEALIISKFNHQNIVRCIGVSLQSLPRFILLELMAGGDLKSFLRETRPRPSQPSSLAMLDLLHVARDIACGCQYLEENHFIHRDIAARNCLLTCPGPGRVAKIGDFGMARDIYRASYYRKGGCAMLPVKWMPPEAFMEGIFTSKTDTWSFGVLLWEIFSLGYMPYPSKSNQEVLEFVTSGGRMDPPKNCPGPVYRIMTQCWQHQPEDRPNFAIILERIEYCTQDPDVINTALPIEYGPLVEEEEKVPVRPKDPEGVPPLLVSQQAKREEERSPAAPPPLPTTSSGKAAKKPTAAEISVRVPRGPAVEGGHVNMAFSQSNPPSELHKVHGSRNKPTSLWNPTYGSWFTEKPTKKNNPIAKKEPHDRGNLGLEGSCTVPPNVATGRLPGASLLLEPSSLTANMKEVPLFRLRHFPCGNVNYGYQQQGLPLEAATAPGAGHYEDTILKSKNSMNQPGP
Chain of Progesterone receptor (P06401 whole entry): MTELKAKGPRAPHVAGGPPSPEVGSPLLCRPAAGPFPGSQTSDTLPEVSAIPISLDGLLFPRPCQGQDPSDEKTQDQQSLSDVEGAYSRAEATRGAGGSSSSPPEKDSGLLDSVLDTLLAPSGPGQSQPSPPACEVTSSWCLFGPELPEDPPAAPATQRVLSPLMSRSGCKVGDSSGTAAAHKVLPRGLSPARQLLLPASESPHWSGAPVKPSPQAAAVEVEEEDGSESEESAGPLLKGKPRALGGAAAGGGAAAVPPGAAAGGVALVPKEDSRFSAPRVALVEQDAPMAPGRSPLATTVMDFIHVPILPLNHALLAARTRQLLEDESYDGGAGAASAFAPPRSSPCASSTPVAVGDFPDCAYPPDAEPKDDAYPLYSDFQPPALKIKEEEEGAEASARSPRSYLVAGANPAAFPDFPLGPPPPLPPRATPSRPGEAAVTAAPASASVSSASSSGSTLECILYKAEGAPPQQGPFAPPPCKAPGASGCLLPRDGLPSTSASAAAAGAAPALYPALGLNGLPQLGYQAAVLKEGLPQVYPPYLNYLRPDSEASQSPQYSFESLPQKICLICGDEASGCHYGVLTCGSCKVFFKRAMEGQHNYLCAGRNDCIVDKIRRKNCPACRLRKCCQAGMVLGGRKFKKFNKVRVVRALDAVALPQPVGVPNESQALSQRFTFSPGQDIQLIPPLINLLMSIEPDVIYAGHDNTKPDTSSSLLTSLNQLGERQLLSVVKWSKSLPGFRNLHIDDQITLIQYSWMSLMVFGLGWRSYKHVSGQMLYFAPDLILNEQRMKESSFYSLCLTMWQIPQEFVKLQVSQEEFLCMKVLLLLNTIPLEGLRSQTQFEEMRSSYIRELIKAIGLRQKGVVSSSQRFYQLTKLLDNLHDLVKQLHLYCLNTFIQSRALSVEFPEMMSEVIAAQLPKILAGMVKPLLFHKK
Chain of Dual specificity testis-specific protein kinase 1 (Homo sapiens) (Q15569 whole entry, looked up): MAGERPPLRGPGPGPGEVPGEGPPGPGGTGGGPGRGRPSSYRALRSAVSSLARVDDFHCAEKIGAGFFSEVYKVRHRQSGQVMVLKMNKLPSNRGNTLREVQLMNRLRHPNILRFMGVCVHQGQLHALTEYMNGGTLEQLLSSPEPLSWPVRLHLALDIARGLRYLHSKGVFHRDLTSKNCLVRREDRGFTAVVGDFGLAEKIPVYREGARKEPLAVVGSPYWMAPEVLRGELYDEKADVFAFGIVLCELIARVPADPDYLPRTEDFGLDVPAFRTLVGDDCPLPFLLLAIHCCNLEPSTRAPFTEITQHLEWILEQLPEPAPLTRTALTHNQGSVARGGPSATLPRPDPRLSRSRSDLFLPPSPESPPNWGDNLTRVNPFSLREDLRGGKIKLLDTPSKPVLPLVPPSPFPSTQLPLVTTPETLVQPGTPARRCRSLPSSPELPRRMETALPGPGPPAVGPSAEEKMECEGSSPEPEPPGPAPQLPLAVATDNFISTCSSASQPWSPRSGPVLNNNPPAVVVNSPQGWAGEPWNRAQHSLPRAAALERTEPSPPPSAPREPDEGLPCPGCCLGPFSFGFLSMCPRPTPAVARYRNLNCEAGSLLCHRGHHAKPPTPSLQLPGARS

% of control [1]: -0.105%
SMILES: Cn1cc(-n2cnc3c(NCc4nc5cc(Cl)c(Cl)cc5[nH]4)nc(N4CCOCC4)nc32)cn1

IC50 [2]: > 30000 nM
SMILES: CCC(=O)N1CC[C@H](Nc2ncnc3c2CN(c2cnc(OC)c(C(F)(F)F)c2)CC3)C1 [LENIOLISIB]

SMILES: CNC(=O)Nc1ccc(-c2nc(N3CC4CCC(C3)O4)c3cnn(C4CCC5(CC4)OCCO5)c3n2)cc1
% of control [3]: 100%

% of inhibition ([4]; at 0.01 µM): 8.7%
% of inhibition ([4]; at 0.04 µM): 1.8%
% of inhibition ([4]; at 0.2 µM): -1.4%
% of inhibition ([4]; at 1 µM): -7.6%
% of inhibition ([4]; at 5 µM): 12.6%
% of inhibition [5]: 3.2%
SMILES: CC[C@@H]1[C@H](F)C(=O)N[C@@H]1COc1nccc2cc(C(N)=O)c(OC)cc12 [ZIMLOVISERTIB]

dTM [6]: -0.1 K
SMILES: CN(C(=O)c1cnn2cccnc12)c1cc2c(cc1N1CCOCC1)C(=O)N(C[C@@H](F)C(C)(C)O)C2

IC50 [7]: 357 nM
SMILES: CCc1cc(Nc2nccc(-c3c(-c4ccc(OC)c(C(=O)Nc5c(F)cccc5F)c4)nc4ccccn34)n2)c(OC)cc1N1CCC(N2CCN(S(C)(=O)=O)CC2)CC1

SMILES: COCC(=O)NC/C=C/c1ccc2ncnc(Nc3ccc(Oc4ccc(C)nc4)c(C)c3)c2c1 [CP-724714]
% of control [8]: 75%
% of control [9]: 100%

SMILES: CN(C)C/C=C/C(=O)Nc1ccc(C(=O)N2CCCC(Nc3ncc(Cl)c(-c4c[nH]c5ccccc45)n3)C2)cc1 (stereo not given)
% of control [10]: 100%

SMILES: COc1cc(C(=O)N2CC[C@@H](O)[C@@H](N)C2)cc2nc(-c3cc4ccccc4n3CC3CC3)n(C)c12
pXC50 [11]: 4.9 M

dTM [12]: -1.04 K
SMILES: Cc1cc(CN)cc(C)c1-c1ncn(C)c1-c1cncn1C

SMILES: COc1cc(N(C)c2ccnc3ccc(C(F)(F)F)cc23)cc(OC)c1OC
% binding [13]: 74%

SMILES: CCC(=O)N1CCN(c2ccc(-n3c(=O)ccc4cnc5ccc(-c6cnc7ccccc7c6)cc5c43)cc2C(F)(F)F)CC1
% of control [14]: 39%

SMILES: O[C@H]1CC[C@H](Nc2ncc3nc(Nc4c(F)cc(F)cc4F)n([C@H]4CCOC4)c3n2)CC1
% of control [15]: 24%

SMILES: N#Cc1cccc(-c2c[nH]c3ncnc(N4CCOCC4)c23)c1
% of inhibition [16]: -38%
